{"source": "patent US20080248568A1", "about": "“Directed Neural Differentiation” (The University Court of the University of Edinburgh, priority 2005, published 2008)", "key": {"[1]": {"test_system": "NotchIC cells", "assay": "Monolayer differentiation of NotchIC ES cells, sox1-GFP by FACS", "format": "cell-based, mouse", "conditions": "4 μM inhibitor, sox1-GFP positive cells by FACS", "text": "Intact cultures were stained for Oct4 on day 5 to visualise undifferentiated ES cells.\n(§1) This is as described in detail in Ying et al., 2003b. Briefly, ES cells were washed to remove all traces of serum and then plated on gelatin-coated tissue culture plastic at a density of 1>10^4 cells/cm^2 in N2B27 serum-free medium. N2B27 consists of a 1:1 ratio of DM/F12 and Neurobasal media supplemental with 0.5% N2 (made in house as described in (Ying et al., 2003b)), 0.5% B27 (Gibco) and 2-mercaptoethanol. Media was changed every second day.\n(§2) In some experiments, the culture medium was supplemented with 100 units/ml LIF and with 10% FCS. The MAPK inhibitor PD184352 (gift of P. Cohen, Univ Dundee) was used at a concentration of 4 μM. The gamma secretase inhibitor (Calbiochem cat. 565771) was used at a concentration of 4 μM."}, "[2]": {"test_system": "ES cells", "assay": "Toxic effects of inhibitors in ES cell monolayer differentiation cultures", "format": "cell-based, mouse", "conditions": "4 μM", "text": "as §1, §2"}}, "data": [{"molecule": "O=C(NOCC1CC1)c1ccc(F)c(F)c1Nc1ccc(I)cc1Cl", "note": "[PD184352]", "values": [{"measurement": "induction of sox1 in NotchIC cells", "setting": "[1]", "value": "able to block induction of sox1"}, {"measurement": "toxic effects over the time course of the experiments", "setting": "[2]", "value": "Neither of these inhibitors had any obvious toxic effects"}]}, {"molecule": "Cc1c[nH]c(/C=C2\\C(=O)Nc3ccccc32)c1CCC(=O)O", "note": "[SU5402]", "values": [{"measurement": "induction of sox1 in NotchIC cells", "setting": "[1]", "value": "able to block induction of sox1"}]}]}
